Consider 16 molecules from ChEMBL document CHEMBL2169853, “Discovery and in vivo evaluation of dual PI3Kβ/δ inhibitors” (J Med Chem, 2012).

In data set [1] the target is Phosphatidylinositol 4,5-bisphosphate 3-kinase catalytic subunit gamma isoform (Homo sapiens, UniProt P48736).
Description: Inhibition of PI3Kgamma by ATP bioluminescence assay
In data set [2] the target is T1, Phosphatidylinositol 4,5-bisphosphate 3-kinase catalytic subunit beta isoform (Homo sapiens, UniProt P42338).
Description: Inhibition of PI3Kbeta using phosphatidylinositol-4,5-bisphosphate by ATP bioluminescence assay
The target of data set [3] is T1, Phosphatidylinositol 4,5-bisphosphate 3-kinase catalytic subunit beta isoform. This is another data set of the same source.
Description: Inhibition of PI3Kbeta-mediated AKT Ser473 phosphorylation in human MDA-MB-468 cells after 120 mins by meso scale discover assay
Data set [4] in a line: in vitro. The conditions noted are these: human, liver microsomes. For orientation: Liver microsomes are a subcellular fraction often used to study metabolism.
Description: Drug metabolism in human liver microsomes at 1 uM after 30 mins
A short description of data set [5]: physchem. Particulars: phosphate buffered saline, pH 7.4.
Description: Solubility of the compound in phosphate buffered saline at pH 7.4
A short description of data set [6]: physchem. Particulars: buffer, pH 7.4.
Description: Lipophilicity, log D of the compound at pH 7.4
Data set [7] deals with T2, PXR (nuclear receptor subfamily 1 group I member 2) (Homo sapiens, UniProt O75469).
T2 sequence (O75469 whole entry): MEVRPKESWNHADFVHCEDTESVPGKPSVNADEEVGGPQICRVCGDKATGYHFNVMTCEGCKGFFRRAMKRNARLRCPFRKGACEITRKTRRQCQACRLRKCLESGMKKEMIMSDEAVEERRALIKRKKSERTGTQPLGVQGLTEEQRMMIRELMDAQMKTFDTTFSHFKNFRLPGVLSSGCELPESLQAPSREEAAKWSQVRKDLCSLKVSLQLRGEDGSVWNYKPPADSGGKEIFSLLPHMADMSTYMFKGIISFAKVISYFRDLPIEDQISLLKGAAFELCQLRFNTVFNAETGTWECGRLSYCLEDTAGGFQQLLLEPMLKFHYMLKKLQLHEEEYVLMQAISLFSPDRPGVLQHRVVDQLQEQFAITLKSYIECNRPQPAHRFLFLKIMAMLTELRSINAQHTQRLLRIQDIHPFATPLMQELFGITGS
Description: in vitro.
Description: Inhibition of human PXR assessed as activity remaining at 2 uM relative to rifampicin

Data set [8] is described as follows: in vitro. Particulars: rat, liver microsomes.
Description: Drug metabolism in rat liver microsomes at 1 uM after 30 mins
The target in data set [9] is T3, Phosphatidylinositol 4,5-bisphosphate 3-kinase catalytic subunit delta isoform (Homo sapiens, UniProt O00329).
T3 sequence (O00329 whole entry): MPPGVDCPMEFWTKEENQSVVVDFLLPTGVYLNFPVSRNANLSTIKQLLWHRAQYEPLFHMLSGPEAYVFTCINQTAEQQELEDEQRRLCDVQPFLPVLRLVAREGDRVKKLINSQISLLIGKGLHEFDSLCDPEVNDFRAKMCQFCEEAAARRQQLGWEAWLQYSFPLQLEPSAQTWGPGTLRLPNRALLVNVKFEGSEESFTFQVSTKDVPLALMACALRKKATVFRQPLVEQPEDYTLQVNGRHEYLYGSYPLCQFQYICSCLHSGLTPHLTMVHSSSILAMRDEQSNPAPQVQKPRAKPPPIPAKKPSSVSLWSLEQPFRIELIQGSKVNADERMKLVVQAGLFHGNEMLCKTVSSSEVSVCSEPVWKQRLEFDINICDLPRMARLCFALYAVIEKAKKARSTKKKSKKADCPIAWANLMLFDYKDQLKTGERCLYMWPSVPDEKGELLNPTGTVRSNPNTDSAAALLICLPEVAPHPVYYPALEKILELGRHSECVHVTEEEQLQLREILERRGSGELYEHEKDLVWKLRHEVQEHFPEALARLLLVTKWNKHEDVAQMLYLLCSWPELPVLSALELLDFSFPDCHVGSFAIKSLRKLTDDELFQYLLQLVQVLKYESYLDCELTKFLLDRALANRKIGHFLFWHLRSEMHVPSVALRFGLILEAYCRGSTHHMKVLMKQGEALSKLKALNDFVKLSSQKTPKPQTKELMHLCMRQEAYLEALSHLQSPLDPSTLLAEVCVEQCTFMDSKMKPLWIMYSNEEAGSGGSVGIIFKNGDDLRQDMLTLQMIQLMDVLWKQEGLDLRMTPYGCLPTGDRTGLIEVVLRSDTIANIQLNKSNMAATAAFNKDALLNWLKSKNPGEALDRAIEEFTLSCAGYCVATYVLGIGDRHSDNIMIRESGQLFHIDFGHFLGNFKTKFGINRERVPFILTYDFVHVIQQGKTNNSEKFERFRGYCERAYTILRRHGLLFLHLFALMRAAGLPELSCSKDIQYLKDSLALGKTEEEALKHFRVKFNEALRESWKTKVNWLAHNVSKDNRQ
Description: Inhibition of PI3Kdelta using phosphatidylinositol-4,5-bisphosphate by ATP bioluminescence assay

In data set [10] the target is Phosphatidylinositol 4,5-bisphosphate 3-kinase catalytic subunit alpha isoform (Homo sapiens, UniProt P42336).
Description: Inhibition of PI3Kalpha by ATP bioluminescence assay
A short description of data set [11]: in vivo. The conditions noted are these: Sprague-Dawley, rat, iv, 0.5 mg/kg.
Description: Half life in Sprague-Dawley rat at 0.5 mg/kg, iv
Data set [12] in a line: in vivo. The conditions noted are these: Sprague-Dawley, rat, iv, 0.5 mg/kg. The source holds these as a separate data set.
Description: Volume of distribution at steady state in Sprague-Dawley rat at 0.5 mg/kg, iv
Data set [13] in a line: in vivo. The conditions noted are these: Sprague-Dawley, rat, iv, 0.5 mg/kg. The source holds these as a separate data set.
Description: Clearance in Sprague-Dawley rat at 0.5 mg/kg, iv
A short description of data set [14]: in vivo. Particulars: Sprague-Dawley, rat, po, 2 mg/kg.
The nature of data set [15]: in vivo. Particulars: Sprague-Dawley, rat, plasma, po, 2 mg/kg.

As a reminder, the IC50 is the concentration that inhibits the measured activity by half. Lower therefore signals higher potency. Usually solubility stands for how much of the substance goes into solution per volume. Read a high solubility as a readily soluble substance. One may read the logD as the decadic logarithm of the distribution of all forms, ionised or not, between an organic phase and buffer at a given pH. The Ki is a measure of affinity in units of concentration, obtained from inhibition or displacement. A lower Ki goes with tighter binding. What is called half-life is the time in which the quantity being followed falls by half. Low readings indicate fast loss, high ones slow loss. As usually defined, the Vd is a proportionality between amount in the body and measured concentration, not a real space. The term clearance denotes the rate of elimination divided by the concentration. Read a high clearance as a high capacity for elimination. The bioavailability is dose-corrected exposure relative to a reference, in per cent. A lower bioavailability goes with little systemic uptake. Usually AUC stands for the area under the concentration-time curve, a measure of exposure.

≈ marks a conversion by molar mass, not a printed value.

T1 sequence (P42338 whole entry, canonical isoform): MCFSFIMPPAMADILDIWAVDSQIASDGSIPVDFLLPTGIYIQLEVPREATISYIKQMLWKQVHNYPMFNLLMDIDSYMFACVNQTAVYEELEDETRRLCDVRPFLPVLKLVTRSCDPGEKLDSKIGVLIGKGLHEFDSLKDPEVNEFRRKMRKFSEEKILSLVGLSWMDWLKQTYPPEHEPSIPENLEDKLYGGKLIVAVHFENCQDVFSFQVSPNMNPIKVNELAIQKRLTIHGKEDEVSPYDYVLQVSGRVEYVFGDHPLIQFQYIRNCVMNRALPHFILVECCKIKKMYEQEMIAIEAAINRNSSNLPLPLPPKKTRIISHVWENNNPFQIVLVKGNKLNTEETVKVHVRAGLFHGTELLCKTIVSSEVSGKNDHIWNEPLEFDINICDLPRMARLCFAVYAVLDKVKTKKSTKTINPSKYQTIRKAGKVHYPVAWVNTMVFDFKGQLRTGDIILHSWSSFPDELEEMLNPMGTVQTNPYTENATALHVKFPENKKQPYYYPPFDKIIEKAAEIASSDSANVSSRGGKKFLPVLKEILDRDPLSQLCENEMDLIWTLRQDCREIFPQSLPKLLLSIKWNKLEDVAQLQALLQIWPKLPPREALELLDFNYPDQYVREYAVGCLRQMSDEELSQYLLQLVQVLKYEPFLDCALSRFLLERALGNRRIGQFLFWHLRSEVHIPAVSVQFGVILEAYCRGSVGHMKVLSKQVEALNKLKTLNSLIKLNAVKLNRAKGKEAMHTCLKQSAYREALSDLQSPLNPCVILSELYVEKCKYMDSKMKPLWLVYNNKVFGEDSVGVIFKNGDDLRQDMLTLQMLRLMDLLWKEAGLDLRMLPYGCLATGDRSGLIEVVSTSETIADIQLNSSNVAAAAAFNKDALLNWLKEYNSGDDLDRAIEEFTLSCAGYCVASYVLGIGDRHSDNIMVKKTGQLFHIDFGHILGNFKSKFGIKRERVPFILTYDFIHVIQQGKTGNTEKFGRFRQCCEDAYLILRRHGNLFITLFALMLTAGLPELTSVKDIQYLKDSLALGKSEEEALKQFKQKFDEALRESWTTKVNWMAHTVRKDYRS
Chain of Phosphatidylinositol 4,5-bisphosphate 3-kinase catalytic subunit alpha isoform (P42336 whole entry, canonical isoform): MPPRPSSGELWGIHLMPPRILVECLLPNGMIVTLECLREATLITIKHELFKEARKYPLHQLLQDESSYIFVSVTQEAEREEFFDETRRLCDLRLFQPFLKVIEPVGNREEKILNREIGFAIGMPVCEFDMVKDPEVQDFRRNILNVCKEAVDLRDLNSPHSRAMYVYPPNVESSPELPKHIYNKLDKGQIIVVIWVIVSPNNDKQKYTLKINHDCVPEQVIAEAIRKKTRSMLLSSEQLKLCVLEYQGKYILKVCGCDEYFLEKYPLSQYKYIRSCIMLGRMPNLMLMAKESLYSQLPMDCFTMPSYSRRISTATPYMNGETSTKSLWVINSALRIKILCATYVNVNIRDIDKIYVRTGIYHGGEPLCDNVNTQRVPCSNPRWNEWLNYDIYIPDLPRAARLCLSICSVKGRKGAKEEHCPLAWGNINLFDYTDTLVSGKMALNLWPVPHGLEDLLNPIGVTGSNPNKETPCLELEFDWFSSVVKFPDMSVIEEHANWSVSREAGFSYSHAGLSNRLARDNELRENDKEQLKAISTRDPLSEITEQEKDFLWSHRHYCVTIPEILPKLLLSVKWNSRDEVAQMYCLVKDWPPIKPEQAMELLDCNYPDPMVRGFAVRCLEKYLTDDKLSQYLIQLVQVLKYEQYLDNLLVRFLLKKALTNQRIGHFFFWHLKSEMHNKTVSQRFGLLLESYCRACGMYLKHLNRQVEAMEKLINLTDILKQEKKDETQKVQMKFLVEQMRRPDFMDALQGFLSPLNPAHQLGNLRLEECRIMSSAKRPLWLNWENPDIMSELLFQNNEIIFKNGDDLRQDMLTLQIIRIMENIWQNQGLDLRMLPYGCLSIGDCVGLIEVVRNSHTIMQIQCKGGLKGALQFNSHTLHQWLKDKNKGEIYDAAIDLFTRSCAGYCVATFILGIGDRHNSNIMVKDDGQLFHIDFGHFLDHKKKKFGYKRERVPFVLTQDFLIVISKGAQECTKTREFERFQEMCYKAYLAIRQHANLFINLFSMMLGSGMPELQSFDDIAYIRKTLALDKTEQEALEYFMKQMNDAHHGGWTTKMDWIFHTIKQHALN
Chain of Phosphatidylinositol 4,5-bisphosphate 3-kinase catalytic subunit gamma isoform (P48736 whole entry, canonical isoform): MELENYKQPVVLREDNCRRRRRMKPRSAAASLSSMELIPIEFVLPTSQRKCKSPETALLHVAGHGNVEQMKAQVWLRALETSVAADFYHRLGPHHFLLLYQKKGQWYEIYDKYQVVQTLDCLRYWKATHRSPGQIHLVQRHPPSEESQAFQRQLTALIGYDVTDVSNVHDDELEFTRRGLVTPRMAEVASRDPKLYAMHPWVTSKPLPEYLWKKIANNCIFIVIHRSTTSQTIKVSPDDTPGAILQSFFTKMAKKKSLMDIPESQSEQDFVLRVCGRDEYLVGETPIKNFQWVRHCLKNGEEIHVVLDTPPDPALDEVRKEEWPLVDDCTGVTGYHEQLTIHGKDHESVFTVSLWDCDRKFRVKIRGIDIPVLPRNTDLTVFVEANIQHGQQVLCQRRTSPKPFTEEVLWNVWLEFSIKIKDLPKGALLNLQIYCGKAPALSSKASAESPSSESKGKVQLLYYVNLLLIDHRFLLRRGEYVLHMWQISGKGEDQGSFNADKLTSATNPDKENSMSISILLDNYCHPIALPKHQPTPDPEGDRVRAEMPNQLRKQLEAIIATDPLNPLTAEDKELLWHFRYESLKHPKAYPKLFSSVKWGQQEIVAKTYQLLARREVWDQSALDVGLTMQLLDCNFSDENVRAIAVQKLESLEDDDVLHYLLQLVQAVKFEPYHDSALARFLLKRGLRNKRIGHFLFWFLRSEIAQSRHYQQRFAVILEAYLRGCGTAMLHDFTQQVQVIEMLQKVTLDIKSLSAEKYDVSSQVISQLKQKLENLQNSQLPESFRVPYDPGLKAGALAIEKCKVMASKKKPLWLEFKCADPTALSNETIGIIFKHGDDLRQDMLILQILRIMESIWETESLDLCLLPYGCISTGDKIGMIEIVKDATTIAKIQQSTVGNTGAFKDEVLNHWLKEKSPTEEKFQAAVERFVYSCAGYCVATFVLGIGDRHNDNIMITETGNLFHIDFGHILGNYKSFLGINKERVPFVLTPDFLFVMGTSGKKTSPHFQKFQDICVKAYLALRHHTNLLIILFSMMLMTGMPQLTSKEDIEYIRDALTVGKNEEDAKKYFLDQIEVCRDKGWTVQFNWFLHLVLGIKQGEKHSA

Turning to `Cc1c(-c2ccccn2)nc2cc(F)ccc2c1N1CC(C)(C)c2ccc(N3CCOCC3)cc21`, the IC50 in data set [1] worked out at 2.01 µM; in [2], 0.058 µM; in [3] it was 0.053 µM. Also, the metabolised at 0.5 h, 1 µM is 40% in the data set “in vitro [4]” and 34% in the data set “in vitro [8]”. In “physchem [5]”, the solubility is 7.4 µg/mL (≈ 15.8 µM). In addition, the logD in “physchem [6]” turned out to be 4.5. Besides, the activity at 2 µM in data set [7] came to 106%.

Regarding `Cc1c(-c2ccccn2)nc2cccc(F)c2c1N1CC(C)(C)c2ccc(N3CCOCC3)cc21`, the IC50 in [9] is 0.072 µM; in [2], 0.72 µM. Also, the metabolised at 0.5 h, 1 µM came to 52% in “in vitro [4]” and 49% in the data set “in vitro [8]”. In “physchem [5]”, this molecule registered a solubility of 5.2 µg/mL (≈ 11.1 µM). The activity at 2 µM in data set [7] was found to be 104%.

Turning to `Cc1nc2ccccc2c(N2CC3(CCOCC3)c3ccc(N4CCOCC4)cc32)c1C`, the results for the concentration for half-maximal inhibition (IC50) in data set [9] and in data set [2] were 0.45 µM and 0.054 µM, respectively. Moreover, the metabolised at 0.5 h, 1 µM in “in vitro [4]” was 70%; in the data set “in vitro [8]”, 71%. The activity at 2 µM in [7] turned out to be 1%.

On to `Cc1c(-c2ccccc2)nc2ccccc2c1N1CC2(CCOCC2)c2ccc(N3CCOCC3)cc21`, for which the results for the IC50 in data set [9] and in data set [2] were 0.091 µM and 0.105 µM, respectively. For the same molecule, the metabolised at 0.5 h, 1 µM in the data set “in vitro [4]” came to 62%; in the data set “in vitro [8]” it was 46%. This molecule also registered a solubility in “physchem [5]” of 3.2 µg/mL (≈ 6.51 µM). Besides, in data set [7], the activity at 2 µM was 103%.

On to `Cc1c(-c2ccccn2)nc2cc(F)ccc2c1N1CC2(CCOCC2)c2ccc(N3CCOCC3)cc21`, for which the half-inhibitory concentration (IC50) in [9] stood at 0.064 µM; in data set [2] it was 0.143 µM. Besides, the metabolised at 0.5 h, 1 µM in the data set “in vitro [4]” came to 64%; in the data set “in vitro [8]”, 13%. Besides, in data set [7], the activity at 2 µM worked out at 22%.

Consider `Cc1c(-c2ccccn2)nc2cc(F)ccc2c1N1CC2(CS(=O)(=O)C2)c2ccc(N3CCOCC3)cc21`, for which the Ki in [1] is 7.34 µM; in data set [10], above 12.5 µM; in data set [2], 0.395 µM.

Turning to `Cc1c(-c2ccccn2)nc2cc(F)ccc2c1N1CC(CO)(CO)c2ccc(N3CCOCC3)cc21`, the Ki in data set [1] is 16 µM; in [10] it was above 125 µM; in data set [2] it was 0.269 µM.

Take `Cc1c(-c2ccccn2)nc2cc(F)ccc2c1N1CC(C)(C)c2ccc(-c3ccncc3)cc21`: the figures for the 50% inhibitory concentration (IC50) in data set [1] and in data set [2] were 1.4 µM and 0.081 µM, respectively.

On to `Cc1c(-c2ccccn2)nc2cc(F)ccc2c1N1CC(C)(C)c2ccc(-c3ccnc(N)n3)cc21`, for which the inhibition constant (Ki) came to 0.09 µM in data set [1] and 0.054 µM in [2]. In the data set “in vivo [11]”, the half-life was 6.1 h. In the data set “in vivo [12]”, this molecule yielded a Vd of 7.5 L/kg. In addition, the clearance in the data set “in vivo [13]” is 1.61 L/h/kg.

As for `Cc1cc(-c2ccc3c(c2)N(c2c(C)c(-c4ccccn4)nc4cc(F)ccc24)CC3(C)C)nc(N)n1`, the Ki was 0.364 µM in data set [1], above 125 µM in data set [10] and above 125 µM in data set [2].

In the case of `Cc1c(-c2ccccn2)nc2cc(F)ccc2c1N1CC(C)(C)c2ncc(N3CCOCC3)cc21`, the inhibition constant (Ki) in data set [9] worked out at 0.007 µM; in data set [1] it was 0.092 µM; in data set [10] it was 1.72 µM; in data set [2], 0.03 µM. The molecule also displayed a concentration for half-maximal inhibition (IC50) in data set [3] of 0.051 µM. In addition, the bioavailability in the data set “in vivo [14]” came to 47%. The AUC in the data set “in vivo [15]” was determined as 2000 nM·h. This molecule also showed a half-life in the data set “in vivo [11]” of 6.2 h. Also, the Vd in “in vivo [12]” is 5 L/kg. Besides, the clearance in “in vivo [13]” was 0.97 L/h/kg. The metabolised at 0.5 h, 1 µM in the data set “in vitro [4]” was 47%; in the data set “in vitro [8]”, 28%. This molecule also gave a solubility in “physchem [5]” of 11 µg/mL (≈ 23.4 µM). In addition, the activity at 2 µM in data set [7] was 22%.

`Cc1c(-c2ccccn2)nc2cc(F)ccc2c1N1CC(C)(C)c2ncc(-c3ccnc(N)n3)cc21`: the inhibition constant (Ki) in data set [1] amounted to 0.028 µM; in data set [2] it was 0.018 µM. Also, in data set [3], half-maximal inhibition (IC50) was put at 0.01 µM. Further, the metabolised at 0.5 h, 1 µM in the data set “in vitro [4]” was found to be 12%; in the data set “in vitro [8]”, 34%. This molecule also registered a solubility in “physchem [5]” of 17 µg/mL (≈ 35.6 µM). Besides, the activity at 2 µM in [7] was 65%.

Take `Cc1nc2ccccc2c(N2CC(C)(C)c3ccc(N4CCOCC4)cc32)c1C`: the half-inhibitory concentration (IC50) in data set [9] came out at 0.362 µM; in [1] it was 18 µM; in data set [10], 41 µM; in [2], 0.06 µM. Moreover, the metabolised at 0.5 h, 1 µM in the data set “in vitro [4]” was 65%; in “in vitro [8]”, 94%. In addition, in “physchem [5]”, the solubility worked out at 1 µg/mL (≈ 2.58 µM). Besides, in [7], the activity at 2 µM came out at 14%.

In the case of `Cc1nc2ccc(Cl)cc2c(N2CC(C)(C)c3ccc(N4CCOCC4)cc32)c1C`, the IC50 in data set [2] was 0.06 µM. For the same molecule, the metabolised at 0.5 h, 1 µM in the data set “in vitro [4]” was 54%; in “in vitro [8]” it was 84%. Further, the solubility in the data set “physchem [5]” stood at 1 µg/mL (≈ 2.37 µM). The activity at 2 µM in data set [7] turned out to be 17%.

With `Cc1c(-c2ccccc2)nc2ccccc2c1N1CC(C)(C)c2ccc(N3CCOCC3)cc21`, the concentration for half-maximal inhibition (IC50) in [9] was 0.085 µM; in data set [2], 0.059 µM. The metabolised at 0.5 h, 1 µM in the data set “in vitro [4]” worked out at 42%; in the data set “in vitro [8]” it was 57%. In the data set “physchem [5]”, the solubility was determined as 2.4 µg/mL (≈ 5.34 µM). In addition, the activity at 2 µM in data set [7] was determined as 197%.

In the case of `Cc1c(-c2ccccc2F)nc2ccccc2c1N1CC(C)(C)c2ccc(N3CCOCC3)cc21`, the results for the IC50 in data set [9] and in [2] were 0.047 µM and 0.035 µM, respectively. The metabolised at 0.5 h, 1 µM in the data set “in vitro [4]” was determined as 47%; in “in vitro [8]”, 52%. The molecule also registered a solubility in the data set “physchem [5]” of 1 µg/mL (≈ 2.14 µM). For the same molecule, in data set [7], the activity at 2 µM came to 162%.
